Experimental data: PubChem BioAssay AID179 (DTP/NCI, 2004)
Activity calls are given as the source filed them.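 How the source made its calls: active means compounds giving half or more protection of infected cells from virus-caused growth loss, again on retest; inactive means the rest.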

Test system: CEM cells HIV-1 protection, formazan growth assay
Assay: NCI AIDS Antiviral Assay
Conditions: for IC50: measured here: growth of uninfected CEM cells
Outline: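 Soluble formazan readout of cell growth; CEM cells ± HIV-1; 5 drug concs. ≥50% protection → retest; ≥50% again = moderately active; reproducible 100% = confirmed active.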

| Compound | EC50 | IC50 | outcome |
| --- | --- | --- | --- |
| COc1ccc(N=[N+]([O-])c2ccc(OC)cc2)cc1 | > 200 µM | > 200 µM | – |
| CC1=CP(=O)(c2ccccc2)CC1 (stereo not given) (tested in a mixture with another compound) | > 646 µM | > 646 µM | – |
| CCOC(=O)n1[nH]c(=O)n(-c2ccccc2)c1=O | > 200 µM | > 200 µM | – |
| Cc1cc(NS(=O)(=O)c2ccc(NC(=O)c3cccc4c(=O)c5ccccc5[nH]c34)cc2)no1 | – | – | inactive |
| CC(C)(C)C1=CC(=NC(=O)c2cc([N+](=O)[O-])cc([N+](=O)[O-])c2)C=C(C(C)(C)C)C1=O | > 6.03 µM | > 6.03 µM | – |
| CCN(CC)CCN(C)c1ccc(/C=C/c2ccnc3ccccc23)cc1 | – | – | inactive |
| c1ccc2c(c1)Sc1nccc3ccnc-2c13 | > 200 µM | 13.8 µM | – |
| CC(C)CCCC(C)[C@H]1CCC2C3CC[C@H]4C[C@@H](CCCP(=O)(c5ccccc5)c5ccccc5)CC[C@]4(C)C3CC[C@@]21C (stereo not given in full) | > 50.1 µM | > 50.1 µM | – |
| O=C1C(=Cc2cccc(Cl)c2)N=C(c2ccccc2)N1n1c(-c2ccccc2)nc2ccccc2c1=O | > 200 µM | 35.5 µM | – |
| COc1ccc(C(=O)/C=C/c2ccncc2)cc1OC | > 200 µM | 3.02 µM | – |
| CCCC#CCC(CC#CCCC)(C(=O)O)C(=O)O | > 490 µM | > 490 µM | – |
| O=C(Nc1ccc(C2=NCCN2)cc1)c1ccc(C(=O)Nc2ccc(C3=NCCN3)cc2)c(F)c1 | 120 µM | > 200 µM | – |
| [O-][N+]1=C2CCC/C(=N/O)C2(O)C2CCCCC21N1CCOCC1 (stereo not given) | > 200 µM | > 200 µM | – |
| O=c1c2cccc3cccc(c4oc5c6cccc7cccc(c(=O)c5c14)c76)c32 | – | – | inactive |
| CN(Cc1cnc2nc(N)nc(N)c2n1)c1ccc(C(=O)N[C@@H](CCC(=O)O)C(=O)O)cc1 | > 1.51 µM | 0.00372 µM | – |
| CC1C2CC(C(S(=O)(=O)O)C2=O)C1(C)C (stereo not given) | > 1000 µM | > 1000 µM | – |
| COc1ccc(C2=C(N)c3c(OC)cccc3C2=O)cc1 | > 200 µM | > 200 µM | – |

| Compound | EC50 | IC50 | outcome |
| --- | --- | --- | --- |
| COC1C=CC23c4cc5c(cc4C(O)OC2CN(C)C3C1)OCO5 (stereo not given) | > 200 µM | 0.891 µM | – |
| CC(=O)OC(C)(C)/C=C/C(=O)[C@](C)(O)[C@H]1[C@H](O)C[C@@]2(C)[C@@H]3CC=C4[C@@H](C=C(OC5OC(CO)C(O)C(O)C5O)C(=O)C4(C)C)[C@]3(C)C(=O)C[C@]12C (stereo not given in full) | > 200 µM | 9.77 µM | – |
| O=C1OC(C2Cc3cc4c(cc3C2=O)CCC4)c2ccccc21 (stereo not given) | > 200 µM | 33.9 µM | – |
| Nc1nc(Cl)cc(NCC2(CO)CC(Cc3ccccc3)C2)n1 (stereo not given) | > 20 µM | 0.174 µM | – |
| COC(=O)c1ccccc1CC1Cc2cccc(C)c2C1=O (stereo not given) | > 200 µM | 53.7 µM | – |
| COCOc1c(C(O[Si](C)(C)C(C)(C)C)c2cnc(Sc3ccccc3)n2C)ccc(OC)c1OC (stereo not given) | > 200 µM | 4.27 µM | – |
| N#CCN1CCN(CC#N)CCN(CC#N)CCN(CC#N)CC1 | > 200 µM | 28.2 µM | – |
| Nc1ccc(S2(c3ccc(N)cc3)C=C(c3ccccc3)C(c3ccccc3)=C2)cc1 | > 200 µM | > 200 µM | – |
| COc1cc(C2C(C(=O)Nc3ccc([N+](=O)[O-])cc3)=C(C)NC(C)=C2C(=O)Nc2ccc([N+](=O)[O-])cc2)ccc1O | > 9.33 µM | > 9.33 µM | – |
| O=C(NO)c1ccc(O)c(O)c1 | > 1480 µM | 74.1 µM | – |
| O=C1C=CC=C/C1=C1\N=C(c2ccccc2OCC(=O)c2ccccc2)SS1 | > 50.1 µM | 4.27 µM | – |
| NC(=O)C(F)C(N)=O | > 200 µM | > 200 µM | – |
| CCOC(=O)C1(C(C)C)OC2CCCCCN2C1=O (stereo not given) | > 589 µM | > 589 µM | – |
| C[n+]1c(-c2ccc(/C=N/NC(=N)N/N=C/c3ccc(-c4cn5cc(Cl)ccc5[n+]4C)cc3)cc2)cn2cc(Cl)ccc21 | 6.46 µM | 155 µM | – |
| COc1ccc(OC)c(NC(=O)Nc2nccs2)c1 | > 200 µM | > 200 µM | – |
| N#C/C(=C(\N)c1ccccc1)c1ccccc1 | > 200 µM | 97.7 µM | – |
| O=C(O)c1c(O)c2cc(Cl)ccc2oc1=O | > 200 µM | 158 µM | – |
